According to patent US20240360126A1, “PYRAZOLO[3,4-B]PYRIDINE COMPOUNDS FOR THE TREATMENT OF AUTOIMMUNE DISEASE” (Hoffmann-La Roche Inc., priority 2021, published 2024):

molecular target: T1, human TLR8 (Homo sapiens, UniProt Q9NR97); assay: HEK293-Blue-hTLR-8 cells assay; type: cell-based; conditions: HEK293-Blue-hTLR8 cells, R848 stimulation, 20 hrs; read-out: HEK/hTLR8 IC50
T1 construct: host or cells: HEK293 (HEK-Blue hTLR8)
T1 sequence (Q9NR97 27-1041): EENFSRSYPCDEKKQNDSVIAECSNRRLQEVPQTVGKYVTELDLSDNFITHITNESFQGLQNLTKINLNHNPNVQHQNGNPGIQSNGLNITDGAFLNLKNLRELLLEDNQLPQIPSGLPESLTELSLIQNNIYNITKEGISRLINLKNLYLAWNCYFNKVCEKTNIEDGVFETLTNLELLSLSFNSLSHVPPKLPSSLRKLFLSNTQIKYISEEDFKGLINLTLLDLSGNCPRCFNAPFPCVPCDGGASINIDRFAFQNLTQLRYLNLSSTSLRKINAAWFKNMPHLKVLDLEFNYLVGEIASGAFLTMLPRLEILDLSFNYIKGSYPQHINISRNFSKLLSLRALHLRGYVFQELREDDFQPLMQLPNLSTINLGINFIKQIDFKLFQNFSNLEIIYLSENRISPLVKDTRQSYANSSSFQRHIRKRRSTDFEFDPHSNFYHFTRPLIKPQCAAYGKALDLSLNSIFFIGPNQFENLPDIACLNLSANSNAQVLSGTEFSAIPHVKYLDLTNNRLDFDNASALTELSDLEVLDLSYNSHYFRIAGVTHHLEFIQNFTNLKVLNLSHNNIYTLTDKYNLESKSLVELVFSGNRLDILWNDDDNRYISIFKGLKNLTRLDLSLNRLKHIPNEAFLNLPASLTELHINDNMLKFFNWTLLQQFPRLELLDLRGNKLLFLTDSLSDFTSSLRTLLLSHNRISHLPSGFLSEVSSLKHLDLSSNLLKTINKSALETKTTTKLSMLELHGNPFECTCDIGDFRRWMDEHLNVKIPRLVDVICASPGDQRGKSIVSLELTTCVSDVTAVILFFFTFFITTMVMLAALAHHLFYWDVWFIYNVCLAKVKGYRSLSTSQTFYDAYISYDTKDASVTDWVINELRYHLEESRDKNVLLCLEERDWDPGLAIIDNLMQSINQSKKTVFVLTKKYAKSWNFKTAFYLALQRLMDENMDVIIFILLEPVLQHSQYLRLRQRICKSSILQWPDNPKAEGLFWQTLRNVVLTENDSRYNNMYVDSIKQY
Source text: A stable HEK293-Blue-hTLR-8 cell line was purchased from InvivoGen (Cat. #: hkb-htlr8, San Diego, California, USA). These cells were originally designed for studying the stimulation of human TLR8 by monitoring the activation of NF-κB. A SEAP (secreted embryonic alkaline phosphatase) reporter gene was placed under the control of the IFN-β minimal promoter fused to five NF-κB and AP-1-binding sites. The SEAP was induced by activating NF-κB and AP-1 via stimulating HEK-Blue hTLR8 cells with TLR8 ligands. Therefore the reporter expression was declined by TLR8 antagonist under the stimulation of a ligand, such as R848, for incubation of 20 hrs. The cell culture supernatant SEAP reporter activity was determined using QUANTT-BlueTv™ kit (Cat. #: rep-qbl, Invivogen, San Diego, Ca, USA) at a wavelength of 640 nm, a detection medium that turns purple or blue in the presence of alkaline phosphatase.
HEK293-Blue-hTLR8 cells were incubated at a density of 250,000˜450,000 cells/mL in a volume of 170 μL in a 96-well plate in Dulbecco's Modified Eagle's medium (DMEM) containing 4.5 g/L glucose, 50 U/mi penicillin, […] streptomycin, […], 2 mM L-glutamine, 10% (v/v) heat-inactivated fetal bovine serum with addition of 20 μL test compound in a serial dilution in the presence of final DMSO at 1% and 10 μL of 60 μM R848 in above DMEM, perform incubation under 37° C. in a CO2 incubator for 20 hrs. Then 20 μL of the supernatant from each well was incubated with 180 μL Quanti-blue substrate solution at 37° C. for 2 hrs and the absorbance was read at 620-655 nm using a spectrophotometer. The signaling pathway that TLR8 activation leads to downstream NF-κB activation has been widely accepted, and therefore similar reporter assay was modified for evaluating TLR8 antagonist.

| Structure (SMILES) | IC50 |
| --- | --- |
| Cc1cc(N2CCC(c3ncc(N4CCNCC4)cc3C)[C@H](C)C2)c2cnn(C)c2n1 (single isomer, unassigned) [Example 24, 1,6-dimethyl-4-[cis-3-methyl-4-(3-methyl-5-piperazin-1-yl-2-pyridyl)-1-piperidyl]pyrazolo[3,4-b]pyridine] | 5 nM |
| Cc1cc(N2CCC(c3ncc(N4CCNCC4)cc3C)CC2)c2cnn(C)c2n1 [Example 7, 1,6-dimethyl-4-[4-(3-methyl-5-piperazin-1-yl-2-pyridyl)-1-piperidyl]pyrazolo[3,4-b]pyridine] | 29 nM |
| Cc1cc(N2CCC(c3cnc(N4CCNCC4)cc3C)[C@H](C)C2)c2cnn(C)c2n1 (single isomer, unassigned) [Example 21, 1,6-dimethyl-4-[trans-3-methyl-4-(4-methyl-6-piperazin-1-yl-3-pyridyl)-1-piperidyl]pyrazolo[3,4-b]pyridine] | 3 nM |
| Cc1cc(N2CCC(c3ccc(N4CCNCC4)cc3)CC2)c2cnn(C)c2n1 [Example 1, 1,6-dimethyl-4-[4-(4-piperazin-1-ylphenyl)-1-piperidyl]pyrazolo[3,4-b]pyridine] | 12 nM |
| Cc1cc(N2CCC(c3cnc(N4CCNCC4)cc3C)CC2)c2cnn(C)c2n1 [Example 8, 1,6-dimethyl-4-[4-(4-methyl-6-piperazin-1-yl-3-pyridyl)-1-piperidyl]pyrazolo[3,4-b]pyridine] | 8 nM |
| CCc1cc(N2CCNCC2)cnc1C1CCN(c2cc(C)nc3c2cnn3C)CC1 [Example 13, 4-[4-(3-ethyl-5-piperazin-1-yl-2-pyridyl)-1-piperidyl]-1,6-dimethyl-pyrazolo[3,4-b]pyridine] | 44 nM |

Now from value to molecule:

| IC50 | Structure (SMILES) |
| --- | --- |
| 10 nM | CO[C@H]1CN(c2ccc([C@H]3CCN(c4cc(C)nc5c4cnn5C)C[C@@H]3C)nc2)CC[C@@H]1N [Example 39, (3S,4S)-1-[6-[(3R,4S)-1-(1,6-dimethylpyrazolo[3,4-b]pyridin-4-yl)-3-methyl-4-piperidyl]-3-pyridyl]-3-methoxy-piperidin-4-amine] |
| 14 nM | CO[C@@H]1CN(c2cnc([C@@H]3CCN(c4cc(C)nc5c4cnn5C)C[C@H]3C)c(C)c2)C[C@H]1N [Example 26, (3R,4R)-1-[6-[(3S,4R)-1-(1,6-dimethylpyrazolo[3,4-b]pyridin-4-yl)-3-methyl-4-piperidyl]-5-methyl-3-pyridyl]-4-methoxy-pyrrolidin-3-amine] |
| 9 nM | Cc1cc(N2CC[C@@H](c3ncc(N4CC[C@@H](N)[C@H](F)C4)cc3C)[C@H](C)C2)c2cnn(C)c2n1 [Example 31, (3R,4R)-1-[6-[(3S,4R)-1-(1,6-dimethylpyrazolo[3,4-b]pyridin-4-yl)-3-methyl-4-piperidyl]-5-methyl-3-pyridyl]-3-fluoro-piperidin-4-amine] |
| 2 nM | Cc1cc(N2CC[C@@H](c3ncc(N4CCOC[C@@H](N)C4)cc3C)[C@H](C)C2)c2cnn(C)c2n1 [Example 28, (6S)-4-[6-[(3S,4R)-1-(1,6-dimethylpyrazolo[3,4-b]pyridin-4-yl)-3-methyl-4-piperidyl]-5-methyl-3-pyridyl]-1,4-oxazepan-6-amine] |
| 11 nM | Cc1cc(N2CC[C@@H](c3ccc(N4CCNCC4)cn3)[C@H](C)C2)c2cnn(C)c2n1 [Example 34, 1,6-dimethyl-4-[(3S,4R)-3-methyl-4-(5-piperazin-1-yl-2-pyridyl)-1-piperidyl]pyrazolo[3,4-b]pyridine] |
| 3 nM | Cc1cc(N2CC[C@@H](c3ncc(N4C[C@H]5NCCO[C@@H]5C4)cc3C)[C@H](C)C2)c2cnn(C)c2n1 [Example 33, (4aR,7aR)-6-[6-[(3S,4R)-1-(1,6-dimethylpyrazolo[3,4-b]pyridin-4-yl)-3-methyl-4-piperidyl]-5-methyl-3-pyridyl]-3,4,4a,5,7,7a-hexahydro-2H-pyrrolo[3,4-b][1,4]oxazine] |
| 15 nM | Cc1cc(N2CC[C@@H](c3ncc(N4CC(C)(N)C4)cc3C)[C@H](C)C2)c2cnn(C)c2n1 [Example 32, 1-[6-[(3S,4R)-1-(1,6-dimethylpyrazolo[3,4-b]pyridin-4-yl)-3-methyl-4-piperidyl]-5-methyl-3-pyridyl]-3-methyl-azetidin-3-amine] |
| 7 nM | Cc1cc(N2CCC(c3ncc(N4CCNCC4)cc3C)[C@H](C)C2)c2cnn(C)c2n1 (single isomer, unassigned) [Example 25, 1,6-dimethyl-4-[trans-3-methyl-4-(3-methyl-5-piperazin-1-yl-2-pyridyl)-1-piperidyl]pyrazolo[3,4-b]pyridine] |
